Experimental data reported in PMC10065799, “High-throughput profiling of sequence recognition by tyrosine kinases and SH2 domains using bacterial peptide display” (eLife, 2023).

Tests used:
Assay in all cases: pTyr-Var library bacterial peptide display kinase screen (enrichment scores)
EPHB2 kinase domain = type: biochemical, human; conditions: sheet EPHB2
c-Src kinase domain = c-Src kinase domain (Homo sapiens, UniProt P12931); type: biochemical; conditions: sheet "Src"
EPHB1 kinase domain = type: biochemical, human; conditions: sheet EPHB1; effect of the variant peptide relative to its reference peptide in the pTyr-Var library screen (enrichment scores)
Fer kinase domain = type: biochemical, mouse; conditions: sheet "Fer"
c-Abl kinase domain = target: T1, c-Abl kinase domain (Mus musculus, UniProt P00520); type: biochemical
T1 sequence (P00520 242-493 limits assumed): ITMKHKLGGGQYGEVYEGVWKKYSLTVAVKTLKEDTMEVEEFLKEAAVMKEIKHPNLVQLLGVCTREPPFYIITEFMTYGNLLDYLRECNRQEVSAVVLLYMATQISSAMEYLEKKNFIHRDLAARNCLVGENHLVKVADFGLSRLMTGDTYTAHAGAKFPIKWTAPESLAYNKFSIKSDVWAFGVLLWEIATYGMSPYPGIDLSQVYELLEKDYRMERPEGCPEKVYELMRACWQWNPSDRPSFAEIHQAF

[1] = effect of variant peptide relative to its reference peptide in the pTyr-Var library screen (enrichment scores)
[2] = variant peptide versus its reference peptide in the pTyr-Var library screen
[3] = value of the variant peptide against its reference peptide in the pTyr-Var library screen with Fer
[4] = sheet "Abl", effect of variant peptide relative to its reference peptide in pTyr-Var library screen (enrichment)
[5] = fig5-data2, sheet "Abl", Screen for the variant/reference peptide pair, pTyr-Var library
[6] = variant peptide relative to its reference peptide, pTyr-Var library screen enrichment
[7] = effect of the variant peptide relative to its reference peptide in the pTyr-Var library screen
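Note: log2 fold change in enrichment of variant over reference.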

LLRFLYFFVCS [SLC34A2_Y109_G106R]
Screen (EPHB2 kinase domain; [1]): -1.518
Screen (c-Src kinase domain; [2]): -1.793

LRSELYSLIAR [PHIP_Y16_F17S]
Screen (EPHB1 kinase domain): 1.727
Screen (Fer kinase domain; [3]): 2.641
Screen (c-Src kinase domain; [2]): 0.6047

LRSKQYLRNPP [SHC1_Y315_F312S]
Screen (EPHB2 kinase domain; [1]): -1.743
Screen (c-Abl kinase domain; [4]): -0.3171

LTELGYSFVTT [ACTA1_Y200_R198L]
Screen (Fer kinase domain; [3]): 0.9203

MSDVPYVMNRG [ACAT1_Y161_N158D]
Screen (c-Abl kinase domain; [5]): 0.04557

NFPGGYSGSVK [MCPH1_Y606_L602F]
Screen (c-Abl kinase domain; [5]): 0.06785

NTEGGYCCICA [CRELD1_Y328_R329C]
Screen (c-Abl kinase domain; [5]): -0.2438

NTGDDYDLFGG [PTPN11_Y63_Y62D_YF]
Screen (Fer kinase domain; [6]): -1.594
Screen (c-Src kinase domain; [2]): -2.136

NWGSPYKSDGC [ZNF347_Y261_N264D]
Screen (c-Abl kinase domain; [4]): 3.66

PADCRYFTFPQ [GAMT_Y222_A224T_YF]
Screen (c-Src kinase domain; [7]): 0.8198

PFSSPYENSLI [EPOR_Y489_N487S_YF]
Screen (Fer kinase domain; [3]): 0.2958

PINLFYLMDLS [ITGB2_Y131_D128N_YF]
Screen (c-Src kinase domain; [7]): -0.4123

PMWHPYKADVT [TP53TG5_Y255_V257A]
Screen (c-Src kinase domain; [2]): -1.569

PNLILYGDFRQ [MYH7_Y715_R712L]
Screen (c-Src kinase domain; [2]): -0.8884

PQEVMYAQLDH [KIR3DL2_Y398_T397M]
Screen (Fer kinase domain; [3]): 0.4165
Screen (c-Src kinase domain; [7]): -0.9154

PSPMPYAFCQM [FOXL2_Y215_S217F]
Screen (Fer kinase domain; [3]): 3.3
Screen (c-Src kinase domain; [7]): 1.188

PVDGEYFTLQI [TP53_Y327_L323V]
Screen (c-Src kinase domain; [2]): -0.1089

QADIIYVNTQL [MERTK_Y872_V870I]
Screen (EPHB1 kinase domain): -0.9888
Screen (Fer kinase domain; [3]): -0.9597

QADVVYVNTQL [MERTK_Y872_I871V]
Screen (EPHB1 kinase domain): -1.929
Screen (Fer kinase domain; [3]): -1.343

QELRRYLESGV [MICA_Y194_K196E]
Screen (EPHB2 kinase domain; [1]): 0.3004

QHVPDYRQNGF [PCDHGA6_Y891_V895G_YF]
Screen (c-Abl kinase domain; [5]): 0.1057

REVPVYISEDS [SYNM_Y460_G462S]
Screen (c-Src kinase domain; [2]): 1.666

RLGVTYEQALA [MAP2_Y996_G991R]
Screen (EPHB2 kinase domain; [1]): 1.544

RQIQSYTCEID [DES_Y331_H326R]
Screen (c-Abl kinase domain; [5]): 0.08274

RSACTYLAPHL [PLK3_Y615_S618P]
Screen (EPHB1 kinase domain): 2.327
Screen (c-Src kinase domain; [2]): 2.785

RSSGGYEPRGC [FUS_Y239_R244C]
Screen (c-Abl kinase domain; [5]): -2.404

RSSNTYTLMDV [ALCAM_Y298_T301M]
Screen (c-Src kinase domain; [7]): -0.02147

RTTIHYNFMCN [TP53_Y234_C229R_YF]
Screen (c-Abl kinase domain; [4]): 1.254

RVFRDYVLKSA [HTATIP2_Y111_D108Y_YF]
Screen (c-Abl kinase domain; [5]): -1.327

SEKVVYQRFTE [NCF1_Y41_R42Q]
Screen (c-Src kinase domain; [2]): 2.147

SNNFIYTTLGV [FAM83B_Y639_K640T_YF]
Screen (EPHB1 kinase domain): 2.305
Screen (Fer kinase domain; [3]): 2.656
Screen (c-Src kinase domain; [7]): 3.577

SRDDFYETIAM [NPY1R_Y347_D346Y_YF]
Screen (Fer kinase domain; [3]): 2.699

SSEILYHIIKG [CDH17_Y489_K486E]
Screen (c-Src kinase domain; [7]): 3.183

SVESPYGSVTF [NDRG2_Y47_T45S]
Screen (Fer kinase domain; [3]): 0.8943
Screen (c-Src kinase domain; [2]): 0.3806

SVGGCYEQLFV [MC4R_Y41_D37V]
Screen (Fer kinase domain; [3]): -0.4465
Screen (c-Src kinase domain; [7]): -0.5254

SVVVHYEPPEV [TP53_Y220_P219H]
Screen (Fer kinase domain; [6]): 1.725

SWSTSYSGFRC [NKAPL_Y91_Y96C_YF]
Screen (Fer kinase domain; [3]): -1.554
Screen (c-Src kinase domain; [2]): -0.8065

TEDELYQLFLQ [RASGRP2_Y378_S381F]
Screen (Fer kinase domain; [6]): 1.535
Screen (c-Src kinase domain; [2]): 1.657

TEIGQYGNGLK [MORC2_Y100_Q96E]
Screen (c-Abl kinase domain; [5]): -0.8794

TLERHYKELQA [SPTBN2_Y834_E835K]
Screen (Fer kinase domain; [6]): -2.093

TLGPFYPSLLF [CRYAA_Y18_R21L]
Screen (c-Abl kinase domain; [5]): 1.059

TNEFEYDELIV [TGM1_Y136_D132N_YF]
Screen (EPHB2 kinase domain; effect of the variant relative to its reference peptide in the pTyr-Var library screen): -2.123

TVSQPYSFIEF [SEC22B_Y110_R108Q]
Screen (Fer kinase domain; [6]): 0.7571
Screen (c-Src kinase domain; [2]): 0.852

TWEKPYECVQC [ZNF24_Y335_G331W]
Screen (c-Abl kinase domain; [4]): -4.858
Screen (Fer kinase domain; [6]): 1.366

VCDALYPPGPP [TTN_Y25928_A25923V]
Screen (c-Abl kinase domain; [4]): -1.728

VDTPMYATMQR [TPO_Y55_A53P]
Screen (c-Src kinase domain; [2]): -0.2543

VHLFAYDWISI [BEST1_Y227_G222V_YF]
Screen (Fer kinase domain; [3]): -0.5402

VLAAQYTTVGR [SGSH_Y240_D235V]
Screen (c-Abl kinase domain; [4]): 1.42

VPLATYMQIFK [RPL21_Y30_R32Q_YF]
Screen (EPHB1 kinase domain): 2.259
Screen (c-Src kinase domain; [2]): 1.658

VPVPGYTKVPE [SPRR3_Y146_L149V]
Screen (c-Abl kinase domain; [4]): 2.059

VVRSLYEDLED [VHL_Y185_I180V]
Screen (c-Abl kinase domain; [4]): -2.047

VWHRRYKHTHE [CTCF_Y343_R339W]
Screen (c-Abl kinase domain; [5]): -0.9062

WNDPDYMDSRR [GAA_Y407_L405P]
Screen (c-Abl kinase domain; [5]): -1.862
